# Read-outs that look alike come from different tables or passages of the source.
# Assays:
# [1] = test system: U-87 MG human glioblastoma cells; details: MTT, 72 h, previously published data; cited from earlier work
# Method: Table 4 Toxicity and IC50 values of five cyclotides and TMZ in SH-SY5Y, U-87 MG, and T-98G cell cultures. | column: IC50 (μM) ± S.D. || The IC50 values of natural and synthetic cyclotides, as well as TMZ, are provided in Table 4. […] The IC50 values were calculated using nonlinear regression analysis with dose-dependent inhibition and an inhibitor vs. no ... || Figure 5 Effect of natural and synthetic Kalata B1 on cell viability in SH-SY5Y, U-87MG, and T-98G cells cultures. The IC50 values for the cyclotides were determined using MTT assay after incubation with cells at increasing concentrations (0.1, 1, 5, and 10 μM) as compared to the control. Panel (A): SH-SY5Y and U-87 MG cells, and panel (B) T-98G and U-87 MG cells. Cultures (6000 cells per well in a 96-well plate), were treated with the cyclotide indicated, for 72 h, then MTT measured. Cell viability was calculated as a percentage of control cultures. IC50 values were calculated using the Best ... || (+ 4 further places)
# [2] = test system: T-98G human glioblastoma cells; experiment: cells; details: Homo sapiens, T98G, 72 h, read-out: IC50 (μM) ± S.D.
# Method: (§1) SH-SY5Y human neuroblastoma cells (population doubling (PD) 20−24), T-98G, and U-87 MG human glioblastoma cells were removed from cryogenic storage, thawed rapidly in a water bath (37 °C) and reconstituted in 75 cm^2 flasks. For SH-SY5Y, the following media were used: Dulbecco’s modified Eagle’s medium/Nutrient F12 Ham (Sigma-Aldrich, Cat. No. D8437) containing 10% heat-inactivated fetal bovine serum, 4 mM L-glutamine, 100 U/mL penicillin, and 100 μg/mL streptomycin. For U-87 MG and T-98G Eagle’s minimal essential medium (ATCC: The Global Bioresource Center, Cat. No. ATCC 30-2003), containing 10% heat-inactivated fetal bovine serum, 4 mM L-glutamine, 100 U/mL penicillin, and 100 μg/mL streptomycin were used.
# (§2) Cells were incubated at 37 °C in a humidified atmosphere of 5% CO2 and 95% air until recovered and ready for passaging (approximately 4 days). At between 80% and 90% confluence, the cells were trypsinized with warm (37 °C) sterile 0.5% Trypsin-EDTA (Thermo Fisher, Cat. No. 15400054) and passaged into 175 cm^2 flasks, where they were left to multiply until they reached 80−90% confluence. To plate cells: cultures were trypsinized, resuspended in 20 mL sterile PBS, counted using a cell counter (Olympus cell counter model R1), and plated in 96-well plates at an optimal density of 6000 cells/well in the designated culture media. The cells were left to adhere overnight before treatment the following day, when the culture medium was removed and replaced with the treatment medium. All incubations were conducted in triplicate wells and repeated at least three times (n = 3).
# (§3) To calculate TMZ IC50 values in each cell line, TMZ was dissolved in DMSO at a stock concentration of 103 mM, which was then diluted into culture medium on the day of use, with the DMSO final concentration always less than 0.1%. The following concentrations of TMZ were used in the experiments: 0.5, 5, 50, 500, 2500, 5000 μM. The media were sterilized for each treatment media with a 0.22 μm filter before they were added to cell cultures. To determine the IC50 values for each cyclotide in each cell type, cyclotides were dissolved into 10% DMSO and then dilutions used to screen cyclotides with a final DMSO concentration of less than 0.1% The following concentrations of cyclotides were used: 0.1, 1, 5, 10 μM. For co-exposure experiments, a simultaneous exposure of cyclotide and TMZ at each respective dose was added to cell cultures (100 μL final volume per well).
# (§4) In accordance with the methods developed by Mosmann and colleagues, the MTT assay was conducted using the Roche cell proliferation kit (Cat. No. 11465007001). Briefly, cells that are active can cleave MTT. The MTT is originally a yellow tetrazolium salt that undergoes a colorimetric change to purple formazan crystals, and the change in absorbance can be measured as an indicator of cell viability/proliferation. For these experiments, cells were plated into 96-well flat-bottom plates, as described in the cell culture above. […] To align with our previous work, experiments were conducted with a 72 h time frame for cytotoxicity evaluation.
# (§5) After a 72 h incubation period, plates were removed from the incubator and 10 µL of MTT was added to each well. The plates were returned to the incubator for an additional 4 h, after which 100 µL of a solubilization solution was added to each well. The plates were returned to incubation overnight, and the next day absorbances were read at 570 nm on a Molecular Devices FlexStation 3 using SoftMax Pro Microplate Data Acquisition and Analysis Software (version 7.0.2).
# [3] = test system: U-87 MG human glioblastoma cells; experiment: cells
# Method: as §1, §2, §3, §4, §5
# [4] = test system: SH-SY5Y human neuroblastoma cells; details: MTT, 72 h, previously published data; cited from earlier work
# Method: Table 4 Toxicity and IC50 values of five cyclotides and TMZ in SH-SY5Y, U-87 MG, and T-98G cell cultures. | column: IC50 (μM) ± S.D. || Figure 5 Effect of natural and synthetic Kalata B1 on cell viability in SH-SY5Y, U-87MG, and T-98G cells cultures. The IC50 values for the cyclotides were determined using MTT assay after incubation with cells at increasing concentrations (0.1, 1, 5, and 10 μM) as compared to the control. Panel (A): SH-SY5Y and U-87 MG cells, and panel (B) T-98G and U-87 MG cells. Cultures (6000 cells per well in a 96-well plate), were treated with the cyclotide indicated, for 72 h, then MTT measured. Cell viability was calculated as a percentage of control cultures. IC50 values were calculated using the Best ... || To evaluate the cytotoxicity of plant-derived Kalata B1 and synthetic Kalata B1, MTT assays were performed with T-98G, U-87 MG, and SH-SY5Y cell cultures.
# U-87 MG cells = experiment: Phase contrast microscopy of U-87 MG cultures; format: cell-based, human; details: 72 h, 150 µM TMZ alone or 0.5 µM synthetic Kalata B1 alone, 20× phase contrast
# [5] = test system: TMZ-resistant cell line T-98G; details: ref Lee 31, read-out: Range of TMZ IC50 values summarized in the literature; cited from earlier work
# Description: Symptoms of GBM include seizures, headaches, nausea, and memory loss, and the side effects of TMZ can not only intensify headaches and nausea but also include diarrhea, constipation, loss of appetite, and sores in the mouth and throat. TMZ is an oral DNA alkylating agent that induces cell cycle arrest at G2/M, and its cytotoxicity is mediated by the addition of methyl groups at N^7 and O^6 sites on guanines and the […] in genomic DNA. A thymine instead of a cytosine is inserted during the alkylation of the O^6 site on guanine, which can cause cell death during DNA replication. ...
smiles,measurement,setting,value
"Cn1nnc2c(C(N)=O)ncn2c1=O [TMZ, temozolomide]",IC50,[1],2898 ± 6 µM
same,IC50,[2],1160 ± 5.31 µM
same,Cell death in MTT cell viability assay,[3],less than 15%
same,IC50,"[3]; Homo sapiens, U-87 MG, 72 h, read-out: IC50 (μM) ± S.D.",1617 ± 5.56 µM
same,IC50,[4],393 ± 4.5 µM
same,"Morphological changes versus control cultures, single agent",U-87 MG cells,little differences
same,IC50,[5],250 to 1580 µM
